# Columns and labels:
# [1] = biological target: Inhibitor of nuclear factor kappa-B kinase subunit epsilon (Homo sapiens) (UniProt Q14164); details: at 1 µM
# [2] = tested on: T1, Receptor-type tyrosine-protein kinase FLT3 (Homo sapiens), P36888 [D835V]; assay: (§1) Selectivity interaction (KinomeScan (DiscoverX)) EUB0000701a FLT3; details: at 1 µM
# T1 sequence (whole entry): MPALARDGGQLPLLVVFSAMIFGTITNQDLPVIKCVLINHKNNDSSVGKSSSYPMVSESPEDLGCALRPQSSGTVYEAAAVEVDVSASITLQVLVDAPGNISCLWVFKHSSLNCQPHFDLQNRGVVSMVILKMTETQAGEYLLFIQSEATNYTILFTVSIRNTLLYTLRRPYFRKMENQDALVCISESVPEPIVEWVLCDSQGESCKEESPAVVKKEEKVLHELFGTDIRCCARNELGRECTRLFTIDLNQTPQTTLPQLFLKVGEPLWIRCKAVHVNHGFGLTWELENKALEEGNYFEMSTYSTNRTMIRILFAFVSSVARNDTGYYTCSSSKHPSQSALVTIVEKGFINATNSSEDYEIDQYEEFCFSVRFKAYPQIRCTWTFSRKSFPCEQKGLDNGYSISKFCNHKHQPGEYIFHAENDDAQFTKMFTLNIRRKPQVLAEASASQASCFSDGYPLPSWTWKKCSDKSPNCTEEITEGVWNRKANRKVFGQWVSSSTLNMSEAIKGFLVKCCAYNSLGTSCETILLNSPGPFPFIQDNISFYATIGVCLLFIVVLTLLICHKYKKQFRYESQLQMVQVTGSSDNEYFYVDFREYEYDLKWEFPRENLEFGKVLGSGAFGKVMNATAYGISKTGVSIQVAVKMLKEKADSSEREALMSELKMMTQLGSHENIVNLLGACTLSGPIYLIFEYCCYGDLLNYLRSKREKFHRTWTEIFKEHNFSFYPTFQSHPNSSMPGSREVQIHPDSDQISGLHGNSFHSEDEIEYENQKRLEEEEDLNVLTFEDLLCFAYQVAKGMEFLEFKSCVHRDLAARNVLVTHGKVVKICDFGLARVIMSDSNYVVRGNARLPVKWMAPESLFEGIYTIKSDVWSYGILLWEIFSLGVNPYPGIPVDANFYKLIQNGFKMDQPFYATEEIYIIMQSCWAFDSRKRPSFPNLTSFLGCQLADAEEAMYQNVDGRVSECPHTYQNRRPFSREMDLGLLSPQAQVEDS
# [3] = tested on: Receptor-type tyrosine-protein kinase FLT3 (Homo sapiens), P36888 [UNDEFINED MUTATION]; assay: as §1; details: at 1 µM
# [4] = biological target: T2, Mitogen-activated protein kinase kinase kinase 19 (Homo sapiens) (UniProt Q56UN5); assay: Selectivity interaction (KinomeScan (DiscoverX)) EUB0000701a MAP3K19; details: at 1 µM
# T2 sequence (whole entry): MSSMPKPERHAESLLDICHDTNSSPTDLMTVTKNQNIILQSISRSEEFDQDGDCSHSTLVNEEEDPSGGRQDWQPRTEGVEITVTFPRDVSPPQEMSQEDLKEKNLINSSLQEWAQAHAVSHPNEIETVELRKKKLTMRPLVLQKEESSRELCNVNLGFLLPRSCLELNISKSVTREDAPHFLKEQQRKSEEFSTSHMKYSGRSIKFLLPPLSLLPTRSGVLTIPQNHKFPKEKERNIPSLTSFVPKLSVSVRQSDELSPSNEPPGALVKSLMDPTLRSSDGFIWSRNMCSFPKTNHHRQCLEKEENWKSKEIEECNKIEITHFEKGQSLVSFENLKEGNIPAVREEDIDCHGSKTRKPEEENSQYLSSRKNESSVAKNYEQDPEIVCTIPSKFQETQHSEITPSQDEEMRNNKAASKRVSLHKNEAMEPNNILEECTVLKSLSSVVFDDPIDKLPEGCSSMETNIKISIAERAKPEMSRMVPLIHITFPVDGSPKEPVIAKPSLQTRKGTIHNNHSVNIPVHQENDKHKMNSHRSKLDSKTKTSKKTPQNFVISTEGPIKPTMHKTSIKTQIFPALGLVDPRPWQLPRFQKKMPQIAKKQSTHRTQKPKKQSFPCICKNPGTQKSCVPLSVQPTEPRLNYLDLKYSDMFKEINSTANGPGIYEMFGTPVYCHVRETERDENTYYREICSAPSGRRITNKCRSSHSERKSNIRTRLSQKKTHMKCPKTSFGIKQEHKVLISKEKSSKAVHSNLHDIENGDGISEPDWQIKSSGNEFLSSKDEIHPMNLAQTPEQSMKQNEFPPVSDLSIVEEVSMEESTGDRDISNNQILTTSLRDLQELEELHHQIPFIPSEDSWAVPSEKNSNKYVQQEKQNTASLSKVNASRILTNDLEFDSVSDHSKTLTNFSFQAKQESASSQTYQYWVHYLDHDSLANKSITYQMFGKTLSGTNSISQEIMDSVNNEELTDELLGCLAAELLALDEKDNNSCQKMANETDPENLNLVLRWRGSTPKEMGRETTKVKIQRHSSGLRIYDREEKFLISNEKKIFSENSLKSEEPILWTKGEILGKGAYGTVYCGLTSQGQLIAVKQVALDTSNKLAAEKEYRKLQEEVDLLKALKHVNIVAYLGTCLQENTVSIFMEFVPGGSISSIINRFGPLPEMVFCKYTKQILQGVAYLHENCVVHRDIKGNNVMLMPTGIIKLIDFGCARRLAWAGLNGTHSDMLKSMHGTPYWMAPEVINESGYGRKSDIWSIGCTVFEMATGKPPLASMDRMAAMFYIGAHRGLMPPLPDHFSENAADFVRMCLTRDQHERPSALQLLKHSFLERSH
# [5] = biological target: Tyrosine-protein kinase ABL1 (Homo sapiens, UniProt P00519); assay: Selectivity interaction (KinomeScan (DiscoverX)) EUB0000701a ABL1; details: at 1 µM
# [6] = biological target: T3, Dual specificity mitogen-activated protein kinase kinase 5 (Homo sapiens) (UniProt Q13163); assay: Selectivity interaction (KinomeScan (DiscoverX)) EUB0000701a MAP2K5; details: at 1 µM
# T3 sequence (whole entry): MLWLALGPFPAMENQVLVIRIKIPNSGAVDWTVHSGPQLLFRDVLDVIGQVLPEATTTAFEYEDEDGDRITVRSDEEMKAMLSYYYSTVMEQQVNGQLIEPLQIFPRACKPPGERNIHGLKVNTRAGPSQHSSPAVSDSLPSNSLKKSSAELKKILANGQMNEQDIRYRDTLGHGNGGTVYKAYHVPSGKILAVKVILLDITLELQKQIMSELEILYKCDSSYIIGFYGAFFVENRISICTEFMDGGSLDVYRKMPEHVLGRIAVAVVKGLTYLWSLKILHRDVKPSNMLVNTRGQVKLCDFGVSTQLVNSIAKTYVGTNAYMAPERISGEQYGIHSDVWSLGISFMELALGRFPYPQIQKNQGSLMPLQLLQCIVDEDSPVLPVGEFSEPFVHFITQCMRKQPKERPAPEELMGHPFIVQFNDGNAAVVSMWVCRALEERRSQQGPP
# [7] = biological target: Mitogen-activated protein kinase kinase kinase kinase 2 (Homo sapiens) (UniProt Q12851); details: at 1 µM
# Chain of Mitogen-activated protein kinase kinase kinase kinase 2 (Homo sapiens) (Q12851 whole entry): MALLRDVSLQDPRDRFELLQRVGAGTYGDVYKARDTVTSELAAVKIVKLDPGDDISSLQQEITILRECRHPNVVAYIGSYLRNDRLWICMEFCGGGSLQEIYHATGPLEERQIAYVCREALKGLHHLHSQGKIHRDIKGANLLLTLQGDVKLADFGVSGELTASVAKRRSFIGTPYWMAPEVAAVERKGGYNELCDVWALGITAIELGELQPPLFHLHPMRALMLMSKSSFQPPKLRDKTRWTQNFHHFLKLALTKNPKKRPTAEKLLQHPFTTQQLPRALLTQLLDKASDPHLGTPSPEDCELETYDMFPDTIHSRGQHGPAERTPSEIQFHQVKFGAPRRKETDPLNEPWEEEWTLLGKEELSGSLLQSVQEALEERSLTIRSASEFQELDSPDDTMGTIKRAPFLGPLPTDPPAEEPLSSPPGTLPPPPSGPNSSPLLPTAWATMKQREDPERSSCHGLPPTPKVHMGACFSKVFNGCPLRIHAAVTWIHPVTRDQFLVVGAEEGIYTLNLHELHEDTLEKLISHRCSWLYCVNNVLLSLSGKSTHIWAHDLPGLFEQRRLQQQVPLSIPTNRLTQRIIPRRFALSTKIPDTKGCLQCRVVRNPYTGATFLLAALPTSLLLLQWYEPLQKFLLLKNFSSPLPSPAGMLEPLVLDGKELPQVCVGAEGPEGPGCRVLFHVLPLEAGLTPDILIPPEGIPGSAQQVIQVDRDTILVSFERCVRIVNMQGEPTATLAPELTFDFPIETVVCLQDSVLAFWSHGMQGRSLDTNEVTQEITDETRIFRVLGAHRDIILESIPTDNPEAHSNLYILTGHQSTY
# [8] = biological target: Hepatocyte growth factor receptor (Homo sapiens) (UniProt P08581); details: at 1 µM
# [9] = biological target: T3, Dual specificity mitogen-activated protein kinase kinase 5 (Homo sapiens); assay: Selectivity interaction (ScanMAX (DiscoverX)) EUB0000700a MAP2K5; details: at 10 µM
# [10] = biological target: Bromodomain-containing protein 9 (Homo sapiens) (UniProt Q9H8M2); assay: Selectivity interaction (Bromodomain panel (DSF assay)) EUB0000004c BRD9
# CREB-binding protein = CREB-binding protein (Homo sapiens, UniProt Q92793); assay: Selectivity interaction (Bromoscan (DiscoverX, BromoKdELECT)) EUB0000004c CREBBP; details: at 10 µM
# Chain of CREB-binding protein (Q92793 2-2442 limits assumed): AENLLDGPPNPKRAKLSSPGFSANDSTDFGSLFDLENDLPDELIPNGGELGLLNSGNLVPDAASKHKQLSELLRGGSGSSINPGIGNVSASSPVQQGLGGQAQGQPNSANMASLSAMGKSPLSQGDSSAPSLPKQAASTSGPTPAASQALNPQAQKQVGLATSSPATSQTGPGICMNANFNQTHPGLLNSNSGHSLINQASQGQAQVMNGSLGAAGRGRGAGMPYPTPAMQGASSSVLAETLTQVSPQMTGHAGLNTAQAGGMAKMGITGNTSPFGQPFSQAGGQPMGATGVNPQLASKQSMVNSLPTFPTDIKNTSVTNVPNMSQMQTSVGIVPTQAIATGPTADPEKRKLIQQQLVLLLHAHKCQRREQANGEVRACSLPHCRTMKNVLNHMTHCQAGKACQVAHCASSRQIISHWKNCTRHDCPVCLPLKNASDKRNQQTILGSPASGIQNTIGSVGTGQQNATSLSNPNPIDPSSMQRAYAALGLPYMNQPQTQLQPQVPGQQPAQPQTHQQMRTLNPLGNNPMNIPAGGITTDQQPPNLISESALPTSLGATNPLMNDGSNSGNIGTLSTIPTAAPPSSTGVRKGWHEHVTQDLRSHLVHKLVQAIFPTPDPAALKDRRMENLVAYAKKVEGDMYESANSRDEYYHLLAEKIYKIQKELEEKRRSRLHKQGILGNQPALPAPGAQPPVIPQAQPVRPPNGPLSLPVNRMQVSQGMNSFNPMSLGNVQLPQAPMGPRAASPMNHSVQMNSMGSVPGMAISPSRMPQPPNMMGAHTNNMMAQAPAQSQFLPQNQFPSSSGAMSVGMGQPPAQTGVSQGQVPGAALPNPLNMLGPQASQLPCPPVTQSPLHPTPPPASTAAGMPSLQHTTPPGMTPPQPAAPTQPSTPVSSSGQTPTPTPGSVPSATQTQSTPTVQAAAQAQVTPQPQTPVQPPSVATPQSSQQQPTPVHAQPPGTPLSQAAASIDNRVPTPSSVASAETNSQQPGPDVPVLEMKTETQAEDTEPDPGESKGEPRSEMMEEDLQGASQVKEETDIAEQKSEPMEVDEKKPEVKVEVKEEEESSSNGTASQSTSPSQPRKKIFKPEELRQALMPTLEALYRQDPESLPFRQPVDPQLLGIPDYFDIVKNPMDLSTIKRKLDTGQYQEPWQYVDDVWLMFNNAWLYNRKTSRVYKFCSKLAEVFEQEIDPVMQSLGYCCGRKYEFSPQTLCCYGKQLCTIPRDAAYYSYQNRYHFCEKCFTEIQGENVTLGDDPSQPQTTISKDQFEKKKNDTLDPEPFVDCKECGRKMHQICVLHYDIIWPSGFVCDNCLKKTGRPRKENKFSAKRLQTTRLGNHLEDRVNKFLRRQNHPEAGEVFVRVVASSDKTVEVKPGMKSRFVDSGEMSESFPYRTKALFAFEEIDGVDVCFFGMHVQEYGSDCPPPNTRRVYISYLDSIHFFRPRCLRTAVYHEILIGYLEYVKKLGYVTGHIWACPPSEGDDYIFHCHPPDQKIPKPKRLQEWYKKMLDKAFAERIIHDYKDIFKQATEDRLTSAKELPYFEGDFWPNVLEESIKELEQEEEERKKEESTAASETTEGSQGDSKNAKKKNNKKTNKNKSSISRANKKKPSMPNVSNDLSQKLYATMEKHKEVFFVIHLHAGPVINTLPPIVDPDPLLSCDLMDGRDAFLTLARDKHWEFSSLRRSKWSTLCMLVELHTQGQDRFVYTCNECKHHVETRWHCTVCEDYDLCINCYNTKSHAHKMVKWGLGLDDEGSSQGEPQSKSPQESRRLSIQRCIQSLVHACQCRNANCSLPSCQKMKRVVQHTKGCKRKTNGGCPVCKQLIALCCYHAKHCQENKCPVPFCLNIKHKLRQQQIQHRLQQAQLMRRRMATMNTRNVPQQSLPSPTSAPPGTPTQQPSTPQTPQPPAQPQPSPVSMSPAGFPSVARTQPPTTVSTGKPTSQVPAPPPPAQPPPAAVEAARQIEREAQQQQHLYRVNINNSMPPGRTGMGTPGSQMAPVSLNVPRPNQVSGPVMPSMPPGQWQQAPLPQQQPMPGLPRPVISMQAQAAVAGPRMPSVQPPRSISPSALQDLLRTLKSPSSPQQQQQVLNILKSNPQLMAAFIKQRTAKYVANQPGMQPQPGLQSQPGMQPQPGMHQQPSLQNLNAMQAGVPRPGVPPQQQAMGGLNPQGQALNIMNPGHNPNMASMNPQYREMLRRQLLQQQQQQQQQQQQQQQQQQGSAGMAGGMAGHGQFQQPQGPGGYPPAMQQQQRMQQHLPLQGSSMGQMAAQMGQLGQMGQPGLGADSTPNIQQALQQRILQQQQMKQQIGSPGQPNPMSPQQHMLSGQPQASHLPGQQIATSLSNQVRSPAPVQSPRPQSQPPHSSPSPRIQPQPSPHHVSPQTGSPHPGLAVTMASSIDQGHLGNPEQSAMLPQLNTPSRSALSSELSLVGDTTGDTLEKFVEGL
# [11] = biological target: T4, Chromatin remodeling regulator CECR2 (Homo sapiens, UniProt Q9BXF3); assay: Selectivity interaction (Bromoscan (DiscoverX, BromoKdELECT)) EUB0000004c CECR2; details: at 10 µM
# T4 sequence (Q9BXF3 whole entry, looked up): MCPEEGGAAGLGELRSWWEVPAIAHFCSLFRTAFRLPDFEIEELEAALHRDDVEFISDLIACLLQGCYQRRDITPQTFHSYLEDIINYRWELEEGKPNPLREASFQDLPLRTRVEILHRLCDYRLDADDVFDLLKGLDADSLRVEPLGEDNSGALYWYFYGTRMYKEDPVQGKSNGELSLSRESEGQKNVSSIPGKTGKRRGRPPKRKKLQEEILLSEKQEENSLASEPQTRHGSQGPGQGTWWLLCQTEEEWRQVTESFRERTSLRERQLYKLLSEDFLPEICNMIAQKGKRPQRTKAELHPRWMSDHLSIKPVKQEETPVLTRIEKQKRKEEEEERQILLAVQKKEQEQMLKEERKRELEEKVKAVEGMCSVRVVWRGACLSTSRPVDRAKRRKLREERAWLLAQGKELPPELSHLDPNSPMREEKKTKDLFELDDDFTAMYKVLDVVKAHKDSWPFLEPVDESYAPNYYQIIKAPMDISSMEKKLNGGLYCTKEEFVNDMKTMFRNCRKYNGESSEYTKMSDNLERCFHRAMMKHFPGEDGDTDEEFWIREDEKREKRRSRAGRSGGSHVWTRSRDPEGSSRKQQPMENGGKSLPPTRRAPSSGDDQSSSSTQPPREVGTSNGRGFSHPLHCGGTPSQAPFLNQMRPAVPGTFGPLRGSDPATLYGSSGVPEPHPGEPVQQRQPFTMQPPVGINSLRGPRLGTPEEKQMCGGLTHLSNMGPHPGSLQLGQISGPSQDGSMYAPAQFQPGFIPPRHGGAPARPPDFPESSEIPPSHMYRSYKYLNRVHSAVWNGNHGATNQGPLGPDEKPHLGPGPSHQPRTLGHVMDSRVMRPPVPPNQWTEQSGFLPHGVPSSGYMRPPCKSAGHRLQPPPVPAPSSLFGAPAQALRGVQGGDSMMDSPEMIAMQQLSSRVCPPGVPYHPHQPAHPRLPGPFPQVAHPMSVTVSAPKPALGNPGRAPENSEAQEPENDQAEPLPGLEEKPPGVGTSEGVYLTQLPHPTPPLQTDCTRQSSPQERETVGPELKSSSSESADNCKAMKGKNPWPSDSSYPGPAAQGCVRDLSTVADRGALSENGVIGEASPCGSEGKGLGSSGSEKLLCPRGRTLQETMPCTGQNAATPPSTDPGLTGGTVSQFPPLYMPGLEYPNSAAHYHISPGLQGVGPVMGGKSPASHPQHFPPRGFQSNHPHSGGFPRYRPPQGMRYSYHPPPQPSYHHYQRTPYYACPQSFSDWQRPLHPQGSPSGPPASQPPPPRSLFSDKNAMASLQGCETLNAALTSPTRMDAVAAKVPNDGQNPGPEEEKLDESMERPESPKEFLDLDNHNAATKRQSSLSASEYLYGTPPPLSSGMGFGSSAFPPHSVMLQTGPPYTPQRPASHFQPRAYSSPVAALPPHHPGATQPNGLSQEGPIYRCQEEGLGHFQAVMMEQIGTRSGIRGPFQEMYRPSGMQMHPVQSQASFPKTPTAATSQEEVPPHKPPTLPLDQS
# [12] = biological target: T5, Bromodomain-containing protein 7 (Homo sapiens) (UniProt Q9NPI1); assay: Selectivity interaction (Bromodomain panel (DSF assay)) EUB0000004c BRD7
# T5 sequence (whole entry): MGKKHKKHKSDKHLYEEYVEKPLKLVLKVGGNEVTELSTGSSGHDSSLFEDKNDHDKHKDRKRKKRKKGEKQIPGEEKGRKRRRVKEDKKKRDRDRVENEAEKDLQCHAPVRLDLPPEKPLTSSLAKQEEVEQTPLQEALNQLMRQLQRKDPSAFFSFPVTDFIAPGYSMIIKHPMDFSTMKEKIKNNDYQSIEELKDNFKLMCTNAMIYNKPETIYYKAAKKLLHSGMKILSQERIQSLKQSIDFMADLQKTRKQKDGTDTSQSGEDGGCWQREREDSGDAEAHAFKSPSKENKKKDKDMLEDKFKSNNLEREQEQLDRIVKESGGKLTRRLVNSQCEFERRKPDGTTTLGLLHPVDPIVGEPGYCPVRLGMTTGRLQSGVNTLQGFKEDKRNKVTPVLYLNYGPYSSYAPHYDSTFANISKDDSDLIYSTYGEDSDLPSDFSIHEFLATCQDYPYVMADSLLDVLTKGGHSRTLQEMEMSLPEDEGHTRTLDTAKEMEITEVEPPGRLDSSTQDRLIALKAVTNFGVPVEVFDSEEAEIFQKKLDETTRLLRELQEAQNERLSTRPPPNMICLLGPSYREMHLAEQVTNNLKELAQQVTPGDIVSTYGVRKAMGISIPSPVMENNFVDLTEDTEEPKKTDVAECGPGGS
# [13] = biological target: Transcription initiation factor TFIID subunit 1 (Homo sapiens, UniProt P21675); assay: Selectivity interaction (Bromoscan (DiscoverX, BromoKdELECT)) EUB0000004c TAF1; details: at 10 µM
# [14] = biological target: T4, Chromatin remodeling regulator CECR2; assay: Selectivity interaction (Bromodomain panel (DSF assay)) EUB0000004c CECR2
# [15] = biological target: T6, Phosphatidylinositol 4,5-bisphosphate 3-kinase catalytic subunit delta isoform (Homo sapiens) (UniProt O00329); assay: Selectivity interaction (KinomeScan (DiscoverX)) EUB0000709a PIK3CD; details: at 100 nM
# T6 sequence (whole entry): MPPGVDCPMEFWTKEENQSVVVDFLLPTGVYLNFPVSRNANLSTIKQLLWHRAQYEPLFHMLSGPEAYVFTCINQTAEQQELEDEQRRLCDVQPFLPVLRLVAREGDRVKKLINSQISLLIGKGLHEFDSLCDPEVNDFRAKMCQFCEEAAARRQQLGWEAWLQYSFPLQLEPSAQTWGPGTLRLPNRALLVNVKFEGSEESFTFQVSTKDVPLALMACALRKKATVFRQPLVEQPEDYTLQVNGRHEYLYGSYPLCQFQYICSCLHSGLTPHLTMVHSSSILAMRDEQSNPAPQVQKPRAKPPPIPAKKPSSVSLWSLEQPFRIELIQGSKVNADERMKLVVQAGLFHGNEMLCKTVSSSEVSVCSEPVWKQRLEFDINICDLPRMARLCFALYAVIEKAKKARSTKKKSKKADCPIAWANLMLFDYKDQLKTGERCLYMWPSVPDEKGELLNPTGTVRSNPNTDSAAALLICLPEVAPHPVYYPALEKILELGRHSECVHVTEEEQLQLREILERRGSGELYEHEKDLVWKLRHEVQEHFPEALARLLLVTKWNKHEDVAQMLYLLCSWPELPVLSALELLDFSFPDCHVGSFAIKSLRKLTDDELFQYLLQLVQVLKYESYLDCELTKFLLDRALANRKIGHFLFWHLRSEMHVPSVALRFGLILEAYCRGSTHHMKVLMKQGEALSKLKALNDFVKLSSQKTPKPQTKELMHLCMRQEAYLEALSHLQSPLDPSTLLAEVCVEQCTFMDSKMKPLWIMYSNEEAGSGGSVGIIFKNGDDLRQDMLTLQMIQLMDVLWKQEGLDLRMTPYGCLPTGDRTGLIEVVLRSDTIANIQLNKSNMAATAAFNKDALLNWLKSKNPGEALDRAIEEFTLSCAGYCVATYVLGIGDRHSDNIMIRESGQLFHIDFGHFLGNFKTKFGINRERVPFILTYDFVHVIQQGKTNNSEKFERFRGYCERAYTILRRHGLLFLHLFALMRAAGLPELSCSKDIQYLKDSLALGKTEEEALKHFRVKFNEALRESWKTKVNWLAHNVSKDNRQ
# [16] = biological target: cAMP-dependent protein kinase catalytic subunit alpha (Homo sapiens, UniProt P17612); assay: Selectivity interaction (KinomeScan (DiscoverX)) EUB0000709a PRKACA; details: at 100 nM
# [17] = biological target: Epidermal growth factor receptor (Homo sapiens, UniProt P00533); assay: Selectivity interaction (KinomeScan (DiscoverX)) EUB0000709a EGFR; details: at 100 nM
structure (smiles),measurement,setting,value
CN(C)c1ncnc(-c2ccc3nc(Nc4cc(CN5CCN(C(=O)CC(F)(F)F)CC5)ccn4)[nH]c3c2)c1Cl,% of control,[1],13%
same,% of control,[2],7%
same,% of control,[3],15%
same,% of control,[4],15%
same,% of control,[5],4.2%
same,% of control,[6],1.8%
C[C@]1(O)C[C@@H](c2nc(-c3ccc4ccc(-c5ccccc5)nc4c3)c3c(N)nccn32)C1,% of inhibition,[7],99%
same,% of inhibition,[8],86%
C[C@H](NC(=O)Nc1cc2[nH]ncc2c(CO)n1)c1ccccn1,% of control,[9],17.6%
COc1cc(-c2cn(C)c(=O)c3cnccc23)c(OC)cc1CN(C)C,dTm,[10],9.21 K
same,% of control,CREB-binding protein,7.2%
same,% of control,[11],0%
same,dTm,[12],6.47 K
same,% of control,[13],8.4%
same,dTm,[14],5.61 K
Cn1cc(Cl)c2c(Oc3c(F)cc(Nc4cc(Cl)nc(N)n4)cc3F)ccnc21,% of control,[15],51%
same,% of control,[16],28%
same,% of control,[17],52%
